Laboratory results taken from US8212031B2, “Pyrrolotriazine kinase inhibitors” (Bristol-Myers Squibb Company, priority 2008, dated 2012).

Target: IGF1-receptor (Homo sapiens, UniProt P08069)
Assay: IGF1-Receptor Tyrosine Kinase Assay
Type: biochemical
Conditions: in vitro kinase assay; ATP 25 μM; FL-peptide 1.5 μM; IGF1-Receptor 14 nM; 60 min room temperature; Caliper LabChip 3000; read-out: IGF1R kinase IC50
Protocol: A IGF1-Receptor Tyrosine Kinase Assay
The assays were performed in U-bottom 384-well plates. The final assay volume was 30 μl prepared from 15 μl additions of enzyme and substrates (fluoresceinated IGF1R substrate peptide and ATP) and test compounds in assay buffer (100 mM HEPES pH 7.4, 10 mM MnCl2, 0.015% Brij35 and 4 mM DTT). The reaction was initiated by the combination of IGF1-receptor with substrates and test compounds. The reaction was incubated at room temperature for 60 min. and terminated by adding 30 μl of 35 mM EDTA to each sample. The reaction mixture was analyzed on the Caliper LabChip 3000 by electrophoretic separation of the fluorescent substrate and phosphorylated product Inhibition data were calculated by comparison to no enzyme control reactions for 100% inhibition and vehicle-only reactions for 0% inhibition. The final concentration of reagents in the assays are ATP, 25 μM; FL-peptide, 1.5 μM; IGF1-Receptor, 14 nM; and DMSO, 1.6%. Dose response curves were generated to determine the concentration required inhibiting 50% of kinase activity (IC50). Compounds were dissolved at 10 mM in dimethylsulfoxide (DMSO) and evaluated at eleven concentrations, each in duplicate. IC50 values were derived by non-linear regression analysis.

Sequence of IGF1-receptor (P08069 31-1367): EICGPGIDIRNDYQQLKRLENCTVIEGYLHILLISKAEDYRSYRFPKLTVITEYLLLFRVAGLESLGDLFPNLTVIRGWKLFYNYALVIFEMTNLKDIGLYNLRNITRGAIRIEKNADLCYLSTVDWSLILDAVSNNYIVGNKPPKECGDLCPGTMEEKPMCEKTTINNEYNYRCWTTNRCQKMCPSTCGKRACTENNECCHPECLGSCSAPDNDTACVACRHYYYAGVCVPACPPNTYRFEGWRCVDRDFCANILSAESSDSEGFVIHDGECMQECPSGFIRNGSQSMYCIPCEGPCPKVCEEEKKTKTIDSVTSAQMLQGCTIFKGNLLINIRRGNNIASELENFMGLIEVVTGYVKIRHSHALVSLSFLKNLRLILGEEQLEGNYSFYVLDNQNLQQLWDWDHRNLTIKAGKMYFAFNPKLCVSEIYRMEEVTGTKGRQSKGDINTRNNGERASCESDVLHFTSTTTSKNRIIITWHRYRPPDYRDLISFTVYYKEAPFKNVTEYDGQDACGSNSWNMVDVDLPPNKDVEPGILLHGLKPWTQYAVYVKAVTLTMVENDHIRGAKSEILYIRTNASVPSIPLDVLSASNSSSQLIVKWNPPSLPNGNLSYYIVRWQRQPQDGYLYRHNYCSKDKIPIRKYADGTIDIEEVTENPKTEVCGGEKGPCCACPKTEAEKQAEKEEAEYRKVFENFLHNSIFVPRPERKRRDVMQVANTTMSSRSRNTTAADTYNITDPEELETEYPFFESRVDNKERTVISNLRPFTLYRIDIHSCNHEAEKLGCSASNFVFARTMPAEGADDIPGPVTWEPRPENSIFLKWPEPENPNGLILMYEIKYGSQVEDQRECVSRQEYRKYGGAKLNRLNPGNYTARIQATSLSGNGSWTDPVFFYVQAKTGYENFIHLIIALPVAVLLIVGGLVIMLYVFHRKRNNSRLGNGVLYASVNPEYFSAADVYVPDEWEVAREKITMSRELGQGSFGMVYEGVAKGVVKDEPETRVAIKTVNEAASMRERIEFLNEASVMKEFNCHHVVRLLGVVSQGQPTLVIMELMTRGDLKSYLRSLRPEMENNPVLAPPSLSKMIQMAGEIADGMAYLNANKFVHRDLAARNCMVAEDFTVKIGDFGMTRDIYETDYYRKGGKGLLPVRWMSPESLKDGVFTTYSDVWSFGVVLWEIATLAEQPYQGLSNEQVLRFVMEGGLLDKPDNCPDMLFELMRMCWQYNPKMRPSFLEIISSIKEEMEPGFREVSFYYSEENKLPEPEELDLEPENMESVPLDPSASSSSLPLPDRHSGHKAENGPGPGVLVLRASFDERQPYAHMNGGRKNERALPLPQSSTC

| Structure (SMILES) | IC50 |
| --- | --- |
| O=C(c1nccs1)N1CCCCN1c1nc(Nc2cc(C3CC3)n[nH]2)c2cccn2n1 [Example 4] | 62 nM |
| O=C(Nc1ccc(F)nc1)N1CCCCN1c1nc(Nc2cc(C3CC3)n[nH]2)c2cccn2n1 [Example 2] | 20 nM |
| O=C(Nc1nccs1)N1CCCCN1c1nc(Nc2cc(C3CC3)n[nH]2)c2cccn2n1 [Example 3] | 2 nM |
